The numbers were not newly measured in patent USRE38386E1, “Retardation of metalloproteinase incidental to HIV and/or AIDS” (priority 1997, dated 2004), which cites them from elsewhere.

The subject of series [1] is endothelial cell monolayers. The settings on record: incubation of HIV-infected monocytes with the proteinase inhibitor.
For series [2], the system named is HIV. The settings on record: added to monocytes on day 10 after infection.
For series [3], the system named is 92-kd metalloproteinase (MMP-9).
Series [4] deals with HIV-infected monocytes. To be noted: interferon-gamma at 50 U/ml.

As to “TIMP-1: proteinase inhibitor, tissue inhibitor of metalloproteinase”, the “increased permeability of endothelial cell monolayers to 125I albumin” value in series [1] is “inhibited”.

Consider “interferon-gamma: interferon-gamma, used to treat HIV-infected monocytes”, for which, in series [2], the “reduction of virus replication” value is listed as “no significant reduction”. Moreover, the “inhibition of MMP-9 production” value in series [3] (added to monocytes on day 10 after infection) is reported as “more than threefold”. Also, the “levels of MMP-9” value in series [3] (treated 1 day after HIV infection, vs monocytes inoculated with live HIV, heat-inactivated HIV or uninfected control) is listed as “substantially lower”. For the same substance, the “levels of MMP-9 produced by HIV-infected monocytes” value in series [3] (treated 1 day prior to infection with HIV, vs untreated HIV-infected monocytes) was “significant reduction”. Besides, the “ability of infected monocytes to form an invasive network on matrigel and their invasion through the matrigel matrix” value in series [4] is “inhibited”.
